The source made the active and inactive calls. The rule behind the calls is not given here.

Experiment [1] deals with HCT-116. Kind of experiment: Cytotoxicity against human HCT116 cells assessed as reduction in cell viability at 50 uM after 72 hrs by MTS assay relative to control. Format: functional. On the technique in general: Formazan colour is commonly taken as a measure of viable cells.
Experiment [2] concerns HepG2. In words: Cytotoxicity against human HepG2 cells assessed as reduction in cell viability at 50 uM after 72 hrs by MTS assay relative to control. The format is functional.
Experiment [3] has as its system HCT-116. In words: Induction of apoptosis in human HCT116 cells at 5 to 50 uM after 72 hrs by Guava ViaCount flow cytometric analysis. Format: functional, cell-based. Background: Flow cytometry measures light scatter and fluorescence of single cells or particles in a stream.
The subject of experiment [4] is HepG2. In words: Induction of apoptosis in human HepG2 cells at 5 to 50 uM after 72 hrs by Guava ViaCount flow cytometric analysis. The format is functional, cell-based.
For experiment [5], the system named is HCT-116. Kind of experiment: Cytotoxicity against human HCT116 cells assessed as reduction in cell viability at 25 uM after 72 hrs by MTS assay relative to control. The format is functional.
Experiment [6] deals with HepG2. Kind of experiment: Cytotoxicity against human HepG2 cells assessed as reduction in cell viability at 25 uM after 72 hrs by MTS assay relative to control. The format is functional.
For experiment [7], the system named is HCT-116. In words: Induction of apoptosis in human HCT116 cells at 50 uM after 72 hrs by Guava ViaCount flow cytometric analysis relative to control. The format is functional.
Experiment [8] relates to HepG2. Kind of experiment: Induction of apoptosis in human HepG2 cells at 50 uM after 72 hrs by Guava ViaCount flow cytometric analysis relative to control. The format is functional.
The subject of experiment [9] is HCT-116. In words: Induction of apoptosis in human HCT116 cells assessed as change in nuclear morphology at 25 uM after 24 hrs by Hoechst staining-based fluorescence microscopic analysis relative to vehicle-treated control. The format is functional.
Experiment [10] concerns HCT-116. Kind of experiment: Induction of apoptosis in human HCT116 cells assessed as change in nuclear morphology at 25 uM after 24 hrs by Hoechst staining-based fluorescence microscopic analysis relative to 5-FU. Format: functional.
Experiment [11] concerns HepG2. Kind of experiment: Induction of apoptosis in human HepG2 cells assessed as change in nuclear morphology at 25 uM after 24 hrs by Hoechst staining-based fluorescence microscopic analysis relative to vehicle-treated control. The format is functional.
The subject of experiment [12] is HepG2. In words: Induction of apoptosis in human HepG2 cells assessed as change in nuclear morphology at 25 uM after 24 hrs by Hoechst staining-based fluorescence microscopic analysis relative to 5-FU. The format is functional.
The subject of experiment [13] is HCT-116. Kind of experiment: Induction of apoptosis in human HCT116 cells assessed as increase in caspase-3/7 activity at 25 to 50 uM after 24 hrs by caspase-Glo 3/7 assay. Format: functional, cell-based.
Experiment [14] concerns HepG2. Kind of experiment: Induction of apoptosis in human HepG2 cells assessed as increase in caspase-3/7 activity at 25 to 50 uM after 24 hrs by caspase-Glo 3/7 assay. The format is functional, cell-based.
In experiment [15] the test system is HCT-116. Kind of experiment: Cytotoxicity against human HCT116 cells assessed as reduction in cell viability at 5 to 50 uM after 72 hrs by MTS assay. Format: functional, cell-based.
Experiment [16] concerns HepG2. In words: Cytotoxicity against human HepG2 cells assessed as reduction in cell viability at 5 to 50 uM after 72 hrs by MTS assay. The format is functional, cell-based.
Experiment [17] concerns HCT-116. Kind of experiment: Induction of apoptosis in human HCT116 cells assessed as change in nuclear morphology at 25 to 50 uM after 24 hrs by Hoechst staining-based fluorescence microscopic analysis. The format is functional, cell-based.
The subject of experiment [18] is HepG2. Kind of experiment: Induction of apoptosis in human HepG2 cells assessed as change in nuclear morphology at 25 to 50 uM after 24 hrs by Hoechst staining-based fluorescence microscopic analysis. Format: functional, cell-based.
The subject of experiment [19] is HCT-116. In words: Cytotoxicity against human HCT116 cells assessed as reduction in cell viability at 10 uM after 72 hrs by MTS assay relative to control. The format is functional.
The test system of experiment [20] is HCT-116. Kind of experiment: Induction of apoptosis in human HCT116 cells at 25 uM after 72 hrs by Guava ViaCount flow cytometric analysis relative to control. Format: functional.
Experiment [21] deals with HepG2. Kind of experiment: Induction of apoptosis in human HepG2 cells at 25 uM after 72 hrs by Guava ViaCount flow cytometric analysis relative to control. Format: functional.

For `CC[C@@H]1CN(C)[C@H]2Cc3c([nH]c4ccccc34)C(=O)C[C@@H]1[C@H]2C(=O)OC`, the outcome in the experiment with HCT-116 [1], in the experiment with HepG2 [2], with HCT-116 [3] and with HepG2 [4] was inactive.

Take `CC[C@@H]1CN(C)[C@H]2Cc3c([nH]c4ccccc34)/C(=N/Nc3ccc(Br)cn3)C[C@H]1[C@@H]2C(=O)OC`: the Activity in the experiment with HCT-116 [5] is above 95%; in the experiment on HepG2 [6] it was above 95%; in the experiment on HCT-116 [7], 95%; in the experiment with HepG2 [8], 95%. Besides, the “fold change (FC)” value with HCT-116 [9] came to 2; in the experiment on HCT-116 [10] it was 2; with HepG2 [11], 4; with HepG2 [12], 2. Moreover, the result in the experiment on HCT-116 [13] and with HepG2 [14] was Active.

Turning to `O=c1[nH]cc(F)c(=O)[nH]1`, the result in the experiment with HCT-116 [15], with HepG2 [16], in the experiment with HCT-116 [3], with HepG2 [4], with HCT-116 [17] and with HepG2 [18] was Active.

Consider `CC[C@H]1CN(C)[C@H]2Cc3c([nH]c4ccccc34)/C(=N/Nc3ccc(Br)cn3)C[C@H]1[C@@H]2C(=O)OC`, for which the Activity with HCT-116 [5] is recorded as above 95%; in the experiment with HepG2 [6], above 95%; in the experiment on HCT-116 [19], 75%; in the experiment with HCT-116 [20], 95%; with HepG2 [21], 95%. Besides, the “fold change (FC)” value is 4 with HCT-116 [9], 4 in the experiment with HCT-116 [10], 5.5 with HepG2 [11] and 2.7 in the experiment on HepG2 [12]. The result in the experiment on HCT-116 [13] and with HepG2 [14] was Active.

As to `CC[C@H]1CN(C)[C@H]2Cc3c([nH]c4ccccc34)/C(=N/Nc3ccccc3)C[C@H]1[C@@H]2C(=O)OC`, the outcome with HCT-116 [1] and with HepG2 [2] was inactive.

In the case of `CC[C@H]1CN(C)[C@H]2Cc3c([nH]c4ccccc34)C(=O)C[C@H]1[C@@H]2C(=O)OC`, the result in the experiment on HCT-116 [1], in the experiment with HepG2 [2], with HCT-116 [3] and in the experiment on HepG2 [4] was inactive.

Take `CC[C@@H]1CN(C)[C@H]2Cc3c([nH]c4ccccc34)/C(=N/Nc3ccccc3)C[C@H]1[C@@H]2C(=O)OC`: the Activity in the experiment with HepG2 [6] is on record as 60%; in the experiment on HCT-116 [1] it was above 95%; in the experiment with HepG2 [2] it was above 95%; in the experiment on HCT-116 [20] it was 35%; in the experiment with HCT-116 [7], 95%; in the experiment with HepG2 [21], 90%. Moreover, in the experiment on HepG2 [8], the Activity came out at 95%. Further, the outcome in the experiment on HCT-116 [17], in the experiment on HepG2 [18], in the experiment on HCT-116 [13] and in the experiment on HepG2 [14] was Active.

For the origin of these results see ChEMBL document CHEMBL3603783, “Monoterpene indole alkaloid hydrazone derivatives with apoptosis inducing activity in human HCT116 colon and HepG2 liver carcinoma cells” (2015).
